15 compounds from PubChem BioAssay (NCI) can be followed below.

Test systems include HCT-15 colon; SF-268 CNS; OVCAR-5 ovarian; NCI-H226 lung; NCI-H460 lung; UO-31 renal; OVCAR-4 ovarian; TK-10 renal; NCI-H23 lung.
Common to all, as to assay: NCI anticancer screen, dose series, 48 h

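Results reflect a 48-hour exposure of cells in 96-well plates to compound at five concentrations. Here, GI50 denotes the concentration required for 50% inhibition of growth. At the TGI there is no net growth.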

As for `CC(=O)[CH-]C(=O)c1ccccc1.CC(=O)[CH-]C(=O)c1ccccc1.CCN(CC)CC[O-].CCN(CC)CC[O-].Cl.[Ti+4]`, the GI50 was 36.4 µM in the experiment on HCT-15 colon; 35.2 µM in the experiment on SF-268 CNS; 59.6 µM in the experiment on OVCAR-5 ovarian; 23 µM in the experiment with NCI-H226 lung; 29.8 µM in the experiment with NCI-H460 lung; 21.1 µM in the experiment on UO-31 renal. Besides, in the experiment with OVCAR-4 ovarian, the GI50 is 56.5 µM. Further, the TGI in the experiment on HCT-15 colon was above 100 µM; with SF-268 CNS it was above 100 µM; in the experiment on OVCAR-5 ovarian, above 100 µM; in the experiment on NCI-H226 lung, 62.4 µM; in the experiment on NCI-H460 lung, above 100 µM; in the experiment on UO-31 renal, 74.8 µM. This compound also registered a TGI in the experiment on OVCAR-4 ovarian above 100 µM.

Regarding `NNC(=O)/C(=C/c1cccc([N+](=O)[O-])c1)NC(=O)c1ccccc1`, the TGI with HCT-15 colon, in the experiment with TK-10 renal, in the experiment on SF-268 CNS, in the experiment on OVCAR-5 ovarian, in the experiment with NCI-H226 lung and in the experiment on NCI-H460 lung was above 100 µM each time. In addition, the TGI in the experiment on UO-31 renal, in the experiment on NCI-H23 lung and in the experiment on OVCAR-4 ovarian was above 100 µM throughout.

Regarding `COc1c(OC(C)=O)ccc(/C=C2\N=C(C)OC2=O)c1[N+](=O)[O-]`, the TGI in the experiment with HCT-15 colon, with TK-10 renal, in the experiment on SF-268 CNS, in the experiment on OVCAR-5 ovarian, with NCI-H460 lung and in the experiment on UO-31 renal was above 100 µM each time. In addition, the TGI in the experiment with OVCAR-4 ovarian was above 100 µM.

As to `C/C(=N\NC(=S)Nc1ccc(C(=O)O)cc1)c1ccccn1`, the TGI in the experiment on HCT-15 colon was above 100 µM; in the experiment on TK-10 renal, above 100 µM; in the experiment with SF-268 CNS, above 100 µM; in the experiment on OVCAR-5 ovarian it was 60.7 µM; in the experiment on NCI-H226 lung, 34.2 µM; in the experiment on NCI-H460 lung, 50.2 µM. For the same compound, the TGI is 39.8 µM in the experiment with UO-31 renal, 98.6 µM with NCI-H23 lung and 29.5 µM in the experiment on OVCAR-4 ovarian.

Regarding `CCOC(=O)C1C=C2O[C@@H]3OC4(CCCCC4)O[C@@H]3C2[C@H]2C(=O)C=CC(=O)[C@@]12C(=O)OC` (some centres undefined), the TGI in the experiment on HCT-15 colon was determined as 28.8 µM; with TK-10 renal it was 26.5 µM; in the experiment with SF-268 CNS, 29.6 µM; with OVCAR-5 ovarian, 31.7 µM; in the experiment on NCI-H226 lung, 36.4 µM; in the experiment with NCI-H460 lung it was 33.4 µM. Further, the TGI in the experiment with UO-31 renal was 29.9 µM; with NCI-H23 lung, 45.2 µM; in the experiment on OVCAR-4 ovarian it was 23.3 µM.

`CCOC(=O)Cc1c(Cc2[nH]c(C(=O)OCc3ccccc3)c(CC(=O)OCC)c2CC(=O)OCC)[nH]c(C(=O)OCc2ccccc2)c1CC(=O)OCC`: the TGI in the experiment on HCT-15 colon, with SF-268 CNS and with UO-31 renal was above 100 µM throughout.

As for `CCCCN(CCCC)C(=O)C(=O)CC(=O)c1ccc(Br)cc1`, the TGI in the experiment on HCT-15 colon, with TK-10 renal, in the experiment with SF-268 CNS, with OVCAR-5 ovarian, in the experiment with NCI-H226 lung and in the experiment on NCI-H460 lung was above 100 µM throughout. Moreover, the TGI in the experiment with UO-31 renal, in the experiment with NCI-H23 lung and in the experiment with OVCAR-4 ovarian was above 100 µM in each case.

As for `N[C@H]1C2C3CC4C5CC(C42)C1(c1ccccc1)C53` (some centres undefined), the TGI in the experiment on HCT-15 colon, in the experiment with TK-10 renal, with SF-268 CNS, with OVCAR-5 ovarian, with NCI-H226 lung and with NCI-H460 lung was above 100 µM throughout. Moreover, the TGI in the experiment on UO-31 renal, in the experiment with NCI-H23 lung and in the experiment with OVCAR-4 ovarian was above 100 µM in each case.

Consider `Cc1cc(C)nc(NS(=O)(=O)c2ccc(Nc3c4ccccc4nc4c(C(=O)Nc5ccc(S(N)(=O)=O)cc5)cccc34)cc2)n1`, for which the TGI with HCT-15 colon, in the experiment on SF-268 CNS, with OVCAR-5 ovarian, in the experiment on NCI-H460 lung, with UO-31 renal and in the experiment on NCI-H23 lung was above 100 µM each time. This compound displayed a TGI in the experiment with OVCAR-4 ovarian above 100 µM.

As for `Cc1c(NC(=O)C(=O)N=NC(=O)c2ccncc2)c(O)c2ccccc2c1O`, the TGI was 26.9 µM with HCT-15 colon; above 100 µM in the experiment with TK-10 renal; 60.5 µM in the experiment on SF-268 CNS; 30.8 µM in the experiment on OVCAR-5 ovarian; 29.5 µM in the experiment on NCI-H226 lung; 16.8 µM in the experiment on NCI-H460 lung. For the same compound, the figures for the TGI with UO-31 renal, in the experiment on NCI-H23 lung and in the experiment on OVCAR-4 ovarian were 40.5 µM, 23.5 µM and 27.5 µM, respectively.

Consider `CCOC(=O)c1cccc(=O)c(C(=O)OCC)c1`, for which the TGI is above 100 µM with HCT-15 colon; above 100 µM with TK-10 renal; above 100 µM in the experiment on OVCAR-5 ovarian; 45.4 µM with NCI-H226 lung; above 100 µM in the experiment on NCI-H460 lung; above 100 µM in the experiment on UO-31 renal. The TGI in the experiment on NCI-H23 lung and in the experiment on OVCAR-4 ovarian was above 100 µM throughout.

In the case of `CC(=O)Oc1c(C)n(CCCl)ccc1=O`, the TGI in the experiment with HCT-15 colon was above 100 µM; in the experiment on TK-10 renal, 73.8 µM; in the experiment with SF-268 CNS, above 100 µM; with OVCAR-5 ovarian, above 100 µM; in the experiment with NCI-H226 lung, above 100 µM; in the experiment with NCI-H460 lung, above 100 µM. The TGI in the experiment with UO-31 renal and with OVCAR-4 ovarian was above 100 µM in each case.

With `COc1cc2cc(Oc3ccc(NC(=O)Nc4cccc(C(F)(F)F)c4)cc3)c(C)nc2cc1OCCN1CCCCC1`, the GI50 was 1.83 µM in the experiment with TK-10 renal; 1.87 µM in the experiment with OVCAR-5 ovarian; 1.92 µM in the experiment on NCI-H226 lung; 1.83 µM with NCI-H460 lung; 1.45 µM in the experiment on UO-31 renal; 1.7 µM in the experiment on NCI-H23 lung. For the same compound, in the experiment on OVCAR-4 ovarian, the GI50 was 1.66 µM. The TGI turned out to be 3.36 µM in the experiment on TK-10 renal; 3.29 µM in the experiment with OVCAR-5 ovarian; 4.62 µM in the experiment on NCI-H226 lung; 3.37 µM in the experiment on NCI-H460 lung; 2.79 µM in the experiment on UO-31 renal; 3.26 µM in the experiment with NCI-H23 lung. For the same compound, the TGI with OVCAR-4 ovarian was found to be 3.39 µM.

In the case of `COc1ccc(-c2oc3cc(O)c(OC)c(O)c3c(=O)c2OC2OC(CO)C(O)C(O)C2O)cc1` (centres undefined), the TGI in the experiment with HCT-15 colon, with TK-10 renal, in the experiment with NCI-H460 lung, with UO-31 renal, in the experiment with NCI-H23 lung and in the experiment on OVCAR-4 ovarian was above 100 µM each time.

With `COc1ccc(/C=C2/CCCC/C2=N/O)cc1`, the TGI in the experiment on HCT-15 colon, in the experiment with TK-10 renal, with SF-268 CNS, with OVCAR-5 ovarian, in the experiment with NCI-H460 lung and with UO-31 renal was above 100 µM in each case. The TGI with NCI-H23 lung and in the experiment on OVCAR-4 ovarian was above 100 µM each time.
